biological target: T1, rat EP1 receptor (Rattus norvegicus, UniProt P70597); assay: Test for confirmation of EP1 receptor antagonism: inhibition of prostaglandin E2-induced increase in intracellular calcium concentration in rat EP1 receptor-expressing COS-1 cells; assay type: cell-based; settings: prostaglandin E2 10 nM, intracellular calcium fluorescence signal
T1 construct: expressed in transfected cells; host or cells: COS-1 cells, transient transfection with Lipofectamine 2000
T1 sequence (P70597 1-405): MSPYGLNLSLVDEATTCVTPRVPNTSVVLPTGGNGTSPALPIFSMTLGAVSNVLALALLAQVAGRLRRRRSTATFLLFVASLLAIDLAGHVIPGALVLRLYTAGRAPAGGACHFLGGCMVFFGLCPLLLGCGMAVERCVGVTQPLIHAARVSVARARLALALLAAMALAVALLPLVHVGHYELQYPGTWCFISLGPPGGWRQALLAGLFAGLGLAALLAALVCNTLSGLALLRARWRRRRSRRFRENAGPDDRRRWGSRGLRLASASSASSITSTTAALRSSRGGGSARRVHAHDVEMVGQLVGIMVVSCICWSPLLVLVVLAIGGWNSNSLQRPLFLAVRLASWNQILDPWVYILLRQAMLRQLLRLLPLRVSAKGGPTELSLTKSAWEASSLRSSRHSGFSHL
Description: Test for Confirmation of EP1 Receptor Antagonism
(1) Preparation of Rat EP1 Expression Vector
Using Rat Kidney BD Marathon-Ready cDNA (Nippon Becton Dickinson Company, Ltd.) as a template, and using a forward primer shown in (SEQ ID NO:1) and a reverse primer shown in (SEQ ID NO:2), a first run of PCR was carried out using KOD-Plus-Ver 2.0 (Toyobo Co., Ltd.). Further, using this amplification product as a template, and using a forward primer shown in (SEQ ID NO:3) and a reverse primer shown in (SEQ ID NO:4), a second run of PCR was carried out in the same manner. The amplification product obtained by the second run of PCR was incorporated into a vector (pcDNA3.1 D/V5-His-TOPO (registered trademark), Invitrogen Japan K. K.). By a conventional method, the vector containing this amplification product was introduced into E. coli (One Shot TOP10 Competent Cells, Invitrogen Corporation) and transformed. This transformed E. coli was cultured in an LB agar medium for one day. After the culture, colonies were selected and cultured in an LB liquid medium containing 50 μg/mL of ampicillin. After the culture, the vector was purified using a QIAprep Spin Miniprep Kit (Qiagen K. K.). The base sequence of the insertion site of this vector (SEQ ID NO:5) was compared with the rat EP1 base sequence (Ptger1) registered as Accession No. NM_013100 in a publicly-known database (NCBI), and as a result, the base sequences completely matched except for a single base. Further, the amino acid sequence translated by the base sequence completely matched the amino acid sequence of the rat EP1 receptor registered as an NCBI Accession No. NP_037232. Therefore, it was confirmed that the cloned gene sequence was a base sequence of the rat EP1 receptor and the obtained amino acid sequence was that of the rat EP1 receptor. The pcDNA3.1 D/V5-His-TOPO (registered trademark) into which the nucleic acid shown in (SEQ ID NO:5) had been inserted was taken as a rat EP1-expressing vector.
(2) Preparation of Rat EP1 Receptor-Expressing Cells
COS-1 cells (Dainippon Sumitomo Pharma Co., Ltd.) were cultured until they reached confluence in an incubator at 37° C. under a 5% CO2 gas condition, using a D-MEM liquid medium (high glucose and L-glutamine contained, Invitrogen Corporation) to which a penicillin-streptomycin solution (Invitrogen Corporation, final concentration: 100 U/mL as benzylpenicillin; 100 μg/mL as streptomycin) as an antibiotic, MEM nonessential amino acids (Invitrogen Corporation, final concentration: 0.1 mM), and fetal calf serum (Sanko Junyaku Co., Ltd., final concentration: 10%) were added.
(2-2) COS-1 Cell Subculture
The cells that had reached confluence were stripped with 0.05% trypsin/0.53 mM EDTA•4Na (Invitrogen Japan K. K.) and resuspended in the liquid medium. The resuspended cells were diluted and cultured in the liquid medium at a spread ratio from 1:4 to 1:8.
(2-3) Preparation of Cells for Introduction of Rat EP1-Expressing Vector
The cells that had reached confluence were stripped with 0.05% trypsin/0.53 mM EDTA•4Na, and resuspended in a D-MEM liquid medium (high glucose and L-glutamine contained, Invitrogen Corporation) to which MEM nonessential amino acids (final concentration: 0.1 mM) and fetal calf serum (final concentration: 10%) were added. In each well of a Poly D-lysine-coated 96-well microplate (BD BioCoat (registered trademark), Nippon Becton Dickinson Company, Ltd.), this resuspended cell suspension culture was prepared to be 5×10^4 cells/well in 100 μL of the liquid medium, and 100 μL of the cell suspension was dispensed and seeded in each well. After seeding, the cells were cultured in an incubator at 37° C. under a 5% CO2 gas condition. Once the cells for introduction of a rat EP1-expressing vector were adhered (about 2 hours after seeding), introduction of the rat EP1-expressing vector was carried out in the following order.
(2-4) Introduction of Rat EP1-Expressing Vector […]

In order of falling IC50:
1. COc1cc2cc(-c3ccccc3)n(Cc3cccc(C(=O)NC#N)n3)c2cc1F [Example 8-7, N-cyano-6-(6-fluoro-5-methoxy-2-phenylindol-1-ylmethyl)pyridine-2-carboxamide]  97 nM
2. CCS(=O)(=O)NC(=O)c1cccc(Cn2c(-c3ccccc3)cc3cc(OC)ccc32)n1 [Example 1-12, N-(ethanesulfonyl)-6-(5-methoxy-2-phenylindol-1-ylmethyl)pyridine-2-carboxamide]  81 nM
3. COc1cc2cc(-c3ccccc3)n(Cc3cccc(-c4nnn[nH]4)n3)c2cc1Cl [Example 2-3, 6-chloro-5-methoxy-2-phenyl-1-[6-(1H-1,2,3,4-tetrazol-5-yl)pyridin-2-ylmethyl]-1H-indole]  67 nM
4. COc1ccc2c(c1)cc(C1(C)CC1)n2Cc1ccc(-c2nnn[nH]2)o1 [Example 5-7, 5-methoxy-2-(1-methylcyclopropyl)-1-[5-(1H-1,2,3,4-tetrazol-5-yl)furan-2-ylmethyl]-1H-indole]  64 nM
5. COc1ccc2c(c1)cc(-c1ccccc1)n2Cc1cccc(C(=O)NS(=O)(=O)C2CC2)n1 [Example 4-14, N-(cyclopropanesulfonyl)-6-(5-methoxy-2-phenylindol-1-ylmethyl)pyridine-2-carboxamide]  63 nM
6. COc1cc2cc(-c3ccccc3)n(Cc3cccc(C(=O)NS(C)(=O)=O)n3)c2cc1F [Example 4-19, 6-(6-fluoro-5-methoxy-2-phenylindol-1-ylmethyl)-N-(methanesulfonyl)pyridine-2-carboxamide]  60 nM
7. CCCS(=O)(=O)NC(=O)c1cccc(Cn2c(-c3ccccc3)cc3cc(OC)c(F)cc32)n1 [Example 4-22, 6-(6-fluoro-5-methoxy-2-phenylindol-1-ylmethyl)-N-(propane-1-sulfonyl)pyridine-2-carboxamide]  59 nM
8. COc1cc2cc(-c3ccsc3)n(Cc3cccc(C(=O)NS(C)(=O)=O)n3)c2cc1F [Example 1-5, 6-[6-fluoro-5-methoxy-2-(thiophen-3-yl)indol-1-ylmethyl]-N-(methanesulfonyl)pyridine-2-carboxamide]  49 nM
9. CCC(C)c1cc2cc(OC)ccc2n1Cc1cccc(C(=O)NS(=O)(=O)C(C)C)n1 (stereo not shown) [Example 4-17, 6-[2-(butan-2-yl)-5-methoxyindol-1-ylmethyl]-N-(propane-2-sulfonyl)pyridine-2-carboxamide]  49 nM
10. CCS(=O)(=O)NC(=O)c1cccc(Cn2c(-c3cc(F)ccc3F)cc3cc(OC)ccc32)n1 [Example 4-5, 6-[2-(2,5-difluorophenyl)-5-methoxyindol-1-ylmethyl]-N-(ethanesulfonyl)pyridine-2-carboxamide]  47 nM
11. CCC(C)c1cc2cc(OC)ccc2n1Cc1cccc(C(=O)NS(=O)(=O)CC)n1 (stereo not shown) [Example 4-10, 6-[2-(butan-2-yl)-5-methoxyindol-1-ylmethyl]-N-(ethanesulfonyl)pyridine-2-carboxamide]  46 nM
12. CCCS(=O)(=O)NC(=O)c1cccc(Cn2c(C(C)CC)cc3cc(OC)ccc32)n1 (stereo not shown) [Example 4-16, 6-[2-(butan-2-yl)-5-methoxyindol-1-ylmethyl]-N-(propane-1-sulfonyl)pyridine-2-carboxamide]  43 nM
13. COc1ccc2c(c1)cc(-c1ccccc1)n2Cc1ccc(-c2nnn[nH]2)o1 [Example 2-2, 5-methoxy-2-phenyl-1-[5-(1H-1,2,3,4-tetrazol-5-yl)furan-2-ylmethyl]-1H-indole]  42 nM
14. CCS(=O)(=O)NC(=O)c1cccc(Cn2c(-c3ccccc3)cc3cc(OC)c(F)cc32)n1 [Example 4-20, N-(ethanesulfonyl)-6-(6-fluoro-5-methoxy-2-phenylindol-1-ylmethyl)pyridine-2-carboxamide]  40 nM
15. COc1ccc2c(c1)cc(-c1ccccc1)n2Cc1cccc(C(=O)NS(=O)(=O)C(C)C)n1 [Example 4-13, 6-(5-methoxy-2-phenylindol-1-ylmethyl)-N-(propane-2-sulfonyl)pyridine-2-carboxamide]  37 nM
16. COc1cc2cc(-c3ccoc3)n(Cc3cccc(-c4nnn[nH]4)n3)c2cc1Cl [Example 5-4, 6-chloro-2-(furan-3-yl)-5-methoxy-1-[6-(1H-1,2,3,4-tetrazol-5-yl)pyridin-2-ylmethyl]-1H-indole]  35 nM
17. COc1cc2cc(C3(C)CC3)n(Cc3cccc(-c4nnn[nH]4)n3)c2cc1Cl [Example 5-6, 6-chloro-5-methoxy-2-(1-methylcyclopropyl)-1-[6-(1H-1,2,3,4-tetrazol-5-yl)pyridin-2-ylmethyl]-1H-indole]  33 nM
18. COc1cc2cc(-c3ccsc3)n(Cc3cccc(-c4nnn[nH]4)n3)c2cc1F [Example 2-4, 6-fluoro-5-methoxy-1-[6-(1H-1,2,3,4-tetrazol-5-yl)pyridin-2-ylmethyl]-2-(thiophen-3-yl)-1H-indole]  32 nM
19. CCC(C)c1cc2cc(OC)c(Cl)cc2n1Cc1cccc(C(=O)NS(=O)(=O)CC)n1 (stereo not shown) [Example 4-2, 6-[2-(butan-2-yl)-6-chloro-5-methoxyindol-1-ylmethyl]-N-(ethanesulfonyl)pyridine-2-carboxamide]  31 nM
20. CCC(C)c1cc2cc(OC)ccc2n1Cc1cccc(C(=O)NS(=O)(=O)C2CC2)n1 (stereo not shown) [Example 4-18, 6-[2-(butan-2-yl)-5-methoxyindol-1-ylmethyl]-N-(cyclopropanesulfonyl)pyridine-2-carboxamide]  31 nM
21. COc1cc2cc(-c3ccccc3)n(Cc3cccc(-c4nnn[nH]4)n3)c2cc1F [Example 5-3, 6-fluoro-5-methoxy-2-phenyl-1-[6-(1H-1,2,3,4-tetrazol-5-yl)pyridin-2-ylmethyl]-1H-indole]  31 nM
22. CCCS(=O)(=O)NC(=O)c1cccc(Cn2c(-c3ccccc3)cc3cc(OC)ccc32)n1 [Example 4-12, 6-(5-methoxy-2-phenylindol-1-ylmethyl)-N-(propane-1-sulfonyl)pyridine-2-carboxamide]  30 nM
23. COc1cc2cc(-c3ccccc3)n(Cc3cccc(C(=O)NS(=O)(=O)C4CC4)n3)c2cc1F [Example 4-23, N-(cyclopropanesulfonyl)-6-(6-fluoro-5-methoxy-2-phenylindol-1-ylmethyl)pyridine-2-carboxamide]  28 nM
24. CCC(C)c1cc2cc(OC)ccc2n1Cc1cccc(-c2nnn[nH]2)n1 (stereo not shown) [Example 5-1, 2-(butan-2-yl)-5-methoxy-1-[6-(1H-1,2,3,4-tetrazol-5-yl)pyridin-2-ylmethyl]-1H-indole]  23 nM
25. COc1cc2cc(-c3ccccc3)n(Cc3cccc(-c4noc(=O)[nH]4)n3)c2cc1F [Example 6-6, 3-[6-(6-fluoro-5-methoxy-2-phenylindol-1-ylmethyl)pyridin-2-yl]-4,5-dihydro-1,2,4-oxadiazol-5-one]  22 nM

— patent publication US8796247B2, “Indole derivative, and pharmacologically acceptable salt thereof” (Kissei Pharmaceutical Co., Ltd., priority 2011, dated 2014)
